From PMC11220592 (Chemical Science, 2024)
pEC50: −log10 of the molar value. “Also recorded” adds a separate entry of the source. Structures can show the parent of a compound that is named as a salt.

What was measured:
SARS-CoV-2 = conditions: read-out: EC50 (antiviral activity); previously reported; cited from earlier work
SARS-CoV-2 Omicron BA.5 = assay: Viral load reduction assay; type: cell-based; conditions: Fig. S7
VeroE6 cells = assay: Cellular bismuth uptake; type: cell-based, African green monkey; conditions: 24 hours, ICP-MS

Compound	pEC50 (SARS-CoV-2)	antiviral activity in virus-infected cells (SARS-CoV-2 Omicron BA.5)	cellular uptake of Bi(III) (VeroE6 cells)
CNC(=C[N+](=O)[O-])NCCSCc1ccc(CN(C)C)o1 [RBC, ranitidine bismuth citrate]	5.64	–	–
Nc1ccc([O-])c(=O)cc1.Nc1ccc([O-])c(=O)cc1.Nc1ccc([O-])c(=O)cc1.[Bi+3] [Bi(Tro-NH2)3, Bi(5-aminotropolonate)3]	–	did not show antiviral activity as good as that at the enzyme level; also recorded: did not show potent antiviral activity in virus-infected cells	poor cellular uptake of Bi(III)
